In US20160120858A1 (ACADEMIA SINICA, priority 2014, published 2016):
Entries after “also recorded” stand apart in the source; their conditions may differ.

Experiments:
NMDAR = experiment: NMDA-fEPSP extracellular recordings, hippocampal slices; format: cell-based, mouse; settings: for NMDAR function (NMDA-fEPSPs) at ZnT3^−/− synapses: ZnT3^−/− hippocampal SC-CA1 synapses
Procedure: (§1) For electrophysiological experiments, sagittal hippocampal slices (400 uM thick for extracellular, 300 uM thick for intracellular recordings) of Shank2^−/− mice (or ZnT3^−/− mice) and their wild-type littermates were prepared using a vibratome (Leica VT1200) in ice-cold dissection buffer containing (in mM) 212 sucrose, 25 NaHCO3, 5 KCl, 1.25 NaH2PO4, 0.5 CaCl2, 3.5 MgSO4, 10 D-glucose, 1.25 L-ascorbic acid, and 2 Na-pyruvate bubbled with 95% 02/5% CO2. CA3 was removed to prevent epileptiform activity. Slices were restored for 1 hour in 32° C. in a normal artificial CSF (ACSF) (In units of mM: 124 NaCl, 2.5 kCl, 1 NaH2PO4, 25 NaHCO3, 10 glucose, 2 CaC12, 2 Mg504 oxidized by 95% 02/5% CO2) For the recording, a single slice was moved to and maintained in submerged-type chamber at 28° C., continuously perfused with ACSF (2 mL/minute) saturated with 95% 02/5% CO2. Stimulation and recording pipettes were pulled from borosilicate glass capillaries (Harvard Apparatus) using a micropipette electrode puller (Narishege).
For extracellular recordings, mouse hippocampal slices at the age of postnatal day 21 to 35 were used. Field excitatory postsynaptic potentials (fEPSPs) were recorded in the stratum radiatum of the hippocampal CA1 region using pipettes filled with ACSF (1 MΩ). fEPSP was amplified (Multiclamp 700B, Molecular Devices), and digitized (Digidata 1440A, Molecular
Devices) for measurements. The Schaffer collateral pathway was stimulated every 20 seconds with pipettes filled with ACSF (0.3 to 0.5 MΩ). The stimulation intensity was adjusted to yield a half-maximal response, and three successive responses were averaged and expressed relative to the normalized baseline. To induce LTP, high frequency stimulation (100 Hz, 1 s) was applied after a stable baseline was acquired. […] To isolate NMDAR-mediated fEPSPs, ACSF containing 2 mM calcium, 0.1 mM magnesium, and 6,7-dinitroquinoxaline-2,3-dione (10 uM, DNQX, Tocris), which inhibits AMPAR-mediated EPSPs, were used.

AMPAR = experiment: AMPA-fEPSPs, input-output and paired pulse ratio, hippocampal slices; format: cell-based, mouse; settings: 4 uM; for AMPA-fEPSPs: WT and KO; for Input-output relationship (AMPA-fEPSP slopes against fiber volley): WT and Shank2^−/− SC-CA1 synapses
Procedure: as §1, with “Shank2^-/-” for “Shank2^−/−”, “ZnT3^-/-” for “ZnT3^−/−”, “([…]). For extracellular recordings, mouse hippocampal slices at the age of postnatal day 21 to 35 were used. Field excitatory postsynaptic potentials (fEPSPs) were recorded in the stratum radiatum of the hippocampal CA1 region using pipettes filled with ACSF (1 MΩ). fEPSP was amplified (Multiclamp 700B, Molecular Devices), and digitized (Digidata 1440A, Molecular Devices) for measurements. The Schaffer collateral pathway was stimulated every 20 seconds with pipettes filled with ACSF (0.3 to 0.5 MΩ). The stimulation intensity was adjusted to yield a half-maximal response, and three successive responses were averaged and expressed relative to the normalized baseline. To induce LTP, high frequency stimulation (100 Hz, 1 s) was applied after a stable baseline was acquired.” for “(Narishege).”

Shank2^−/− mice = experiment: Three-chamber social interaction assay, Shank2 mice; format: in vivo, mouse; settings: 30 mg/kg i.p., 2 hours prior to test
Description: (§2) All mice were backcrossed into a C57BL/6 background, and housed and bred in a mouse vivarium at the Korea Advanced Institute of Science and Technology (KAIST, Shank2^−/−mice) and at Academia Sinica (Tbr1^+/− mice). Pups were kept with the dam until weaning at postnatal day 21. After weaning, animals were group housed in mixed-genotype groups of 3 to 5 mice per cages, and randomly subjected to electrophysiological and behavioral experiments. Animals at 3 to 5 weeks of age were used for electrophysiological experiments; male animals at 2 to 4 months of age were used for behavioral assays. For TFL-Zn staining, male animals at 8 weeks (for Shank2^−/−mice) were used. Wild-type littermates were used as controls.
(§3) The injection was performed 2 hours before (Shank2^−/− mice and wild-type littermates), or 3 hours before (Tbr1^+/− mice and wild-type littermates) behavioral assays at the discretion of the facility.
(§4) Testing was conducted in dedicated behavioral test rooms during the light phase (three-chamber test) and the dark phase (repetitive behaviors and open field test).
(§5) In short, the assay consisted of three phases of 10 minutes duration: habituation, social interaction (Stranger1 vs. Object), and social novelty recognition (Stranger 1 vs. Stranger 2). Exploration was defined as each instance in which wild-type or mutant mouse tries to sniff Object/Stranger, or orients its nose towards and come close to object/stranger. Individual movement tracks were analyzed by Ethovision 10.0 (Noldus) and modified by custom-designed software MatLab (Mathworks) to generate heat maps. Time spent in exploration was analyzed by the researcher who was blinded to the subject genotype (in Shank2 mice), or by using the Smart Video Tracking System (Panlab, in Tbr1 mice). In addition to exploration time, the preference index, which represents a numerical difference between time spent exploring the targets (Stranger1 vs. Object, or Stranger 2 vs. Stranger 1) divided by total time spent exploring both targets, as described previously.
Two hours after CQ treatment, the mice were subjected to a three-chamber social interaction test, which compares the preference of a mouse for a stranger mouse versus a novel inanimate object.

Tbr1^+/− mice = experiment: Three-chamber social interaction assay, Tbr1 mice; format: in vivo, mouse; settings: 30 mg/kg, 3 hours before test
Description: as §2, §3, §4, §5

Question: Which “NMDAR function (NMDA-fEPSPs) in the presence of PP3” value (NMDAR; CQ 4 uM, 20 minutes) does the source give for `Oc1c(I)cc(Cl)c2cccnc12` [clioquinol, 5-Chloro-7-Iodo-8-Hydroxyquinoline] here?
Answer: Its value is “effectively enhances NMDAR function”.

Question: What about the “NMDAR function (NMDA-fEPSPs) in the presence of Ca-EDTA” value (NMDAR; CQ 4 uM, 20 minutes, Ca-EDTA 2 mM throughout recordings) of the same compound?
Answer: The value was “fails to enhance NMDAR function”.

Question: What about the “NMDAR function (NMDA-fEPSPs) in the presence of PP2” value (NMDAR; CQ 4 uM, 20 minutes, PP2 10 uM throughout recordings) of the same compound?
Answer: The value was “fails to enhance NMDAR function”.

Question: What about the “NMDAR function (NMDA-fEPSPs) in the presence of SU6656” value (NMDAR; CQ 4 uM, 20 minutes, SU6656 10 uM throughout recordings) of the same compound?
Answer: The value was “fails to enhance NMDAR function”.

Question: What about the “NMDAR function (NMDA-fEPSPs) in the presence of TPEN” value (NMDAR; CQ 4 uM, 20 minutes, TPEN 25 uM throughout recordings) of the same compound?
Answer: The value was “fails to enhance NMDAR function”.

Question: And the “Initial slopes of NMDA-fEPSPs” value (NMDAR; Shank2^−/− SC-CA1 synapses, clioquinol for 20 minutes)?
Answer: Its value is ~150 % of baseline levels.

Question: And the “NMDAR function (NMDA-fEPSPs) in the presence of cuprizone” value (NMDAR; WT and KO slices)?
Answer: Its value is “enhances NMDAR function”.

Question: And the “NMDAR function (NMDA-fEPSPs)” value (NMDAR; WT and Shank2^−/− SC-CA1 synapses, 4 uM, 20 minutes)?
Answer: The value was “enhances NMDAR function”.

Question: And the “NMDAR function (NMDA-fEPSPs) at ZnT3^−/− synapses” value (NMDAR)?
Answer: The value was “had no effect on NMDAR activity”.

Question: What about the “NMDAR function (NMDA-fEPSPs) at ZnT3^−/− synapses” value (NMDAR; listed as CQ) of the same compound?
Answer: Its value is “fails to enhance NMDAR function”.

Question: And the AMPA-fEPSPs (AMPAR)?
Answer: Its AMPA-fEPSPs is “not affected”.

Question: And the AMPA-fEPSPs (AMPAR; listed as CQ)?
Answer: The AMPA-fEPSPs was “has no effect on AMPA-fEPSPs”.

Question: And the “Input-output relationship (AMPA-fEPSP slopes against fiber volley)” value (AMPAR)?
Answer: The value was “had no effect”.

Question: What about the “Input-output relationship (AMPA-fEPSP slopes against fiber volley)” value (AMPAR; listed as CQ) of the same compound?
Answer: The value was “has no effect on the input-output relationship”.

Question: What about the Social novelty recognition (Shank2^−/− mice; Shank2^−/− (KO) mice) of the same compound?
Answer: The Social novelty recognition was “had no effect on social novelty recognition; also recorded: did not affect the social novelty recognition”.

Question: And the Social novelty recognition (Shank2^−/− mice; Shank2^−/− (KO) mice, listed as Clioquinol)?
Answer: The Social novelty recognition was “has no effect on social novelty recognition”.

Question: What about the Social novelty recognition (Shank2^−/− mice; wild-type (WT) mice) of the same compound?
Answer: Its Social novelty recognition is “had no effect on social novelty recognition; also recorded: did not affect the social novelty recognition”.

Question: And the Social novelty recognition (Shank2^−/− mice; wild-type (WT) mice, listed as Clioquinol)?
Answer: The Social novelty recognition was “has no effect”.

Question: What about the Social novelty recognition (Tbr1^+/− mice; Tbr1^+/− (HT) mice) of the same compound?
Answer: The Social novelty recognition was “had no effect on social novelty recognition”.

Question: And the Social novelty recognition (Tbr1^+/− mice; Tbr1^+/− (HT) mice, listed as CQ)?
Answer: Its Social novelty recognition is “fails to enhance social novelty recognition; also recorded: has no effect on social novelty recognition”.

Question: And the Social novelty recognition (Tbr1^+/− mice; wild-type mice)?
Answer: Its Social novelty recognition is “had no effect on social novelty recognition”.

Question: And the Social novelty recognition (Tbr1^+/− mice; wild-type mice, listed as CQ)?
Answer: Its Social novelty recognition is “has no effect”.
